According to patent US8802929B2, “MIR164 gene that controls plant root system development and fertility and use thereof” (Huazhong Agricultural University, priority 2009, dated 2014):

What was measured:
[1] = system: transgenic plants overexpressing miR164; assay: Restoration of fertility of transgenic plants overexpressing miR164 by external application of hormones; type: in vivo, rice; conditions: two T0 transgenic plants; four phytohormones (IAA, NAA, KT, 6-BA) applied continually from tillering stage to grain filling stage; FIG. 7
Source text: Two T0 transgenic plants overexpressing miR164 were continually subjected to external application of four phytohormones, indoleacetic acid (IAA), naphthaleneacetic acid (NAA), kinetin (KT), and 6-benzylaminopurine (6-BA) from tillering stage to grain filling stage, and compared with the transgenic plants overexpressing miR164 grown normally. […] That the fertility of transgenic rice plants overexpressing miR164 could be restored by external application of hormones can be taken advantage of to conveniently use a transgenic rice plant to breed a sterile line (without application of hormones) or a maintainer line (by external application of hormones to allow the sterile line to produce seeds and to be reproduced; however the next generation is still sterile without externally applied hormones), thereby achieving “the double usage of a single line” for the breeding of hybrid rice.

miR164 = assay: Expression level of mature miR164 after phytohormone treatment, Northern blotting; type: in vivo, rice variety Minghui 63 (Oryza sativa L. ssp. Indica); conditions: hormone sprayed onto rice plants at 4-leaf stage; for change in expression of miR164 after phytohormone treatment: leaves, Northern blotting, FIG. 3
Procedure: The indica rice variety “Minghui 63” was used for expression profile analysis. Phytohormone treatment was carried out by evenly spraying the hormones onto the surfaces of the rice plants at the 4-leaf stage obtained from seeds which had been induced to germinate and cultivated under normal growth conditions for 18-20 days. The plants treated with kinetin and gibberellin were sampled before treatment as well as 1 min, 5 min, 10 min, 20 min, 30 min, 1 h, and 3 h after treatment. The plants treated with naphthaleneacetic acid were sampled before treatment as well as 30 min, 3 h, 9 h and 24 h after treatment. The plants treated with brassinolide were sampled before treatment as well as 15 min, 30 min, 1 h, 3 h, 6 h, 9 h and 21 h after treatment. Light treatment of etiolated shoots was performed by subjecting seeds to induction of germination and continuous cultivation in dark for 14 days followed by transferring the etiolated shoots to normal lighting conditions. Samples were taken before light treatment as well as 3 h, 6 h and 9 h after light treatment. Total RNA was extracted from leaves using Trizol reagent (Invitrogen Corp.), and then transferred to membrane as described by Xie et al. (Xie K, Wu C, and Xiong L. Genomic organization, differential expression, and interaction of SQUAMOSA promoter-binding-like transcription factors and microRNA156 in rice. Plant Physiol, 2006, 142: 280-293). Northern hybridization was performed using miR164 as the probe. […] The expression level of miR164 increased 24 hours after naphthaleneacetic acid (NAA) treatment.

rice root system = assay: Root system phenotype of transgenic plants overexpressing miR164 on 1/2 MS medium; type: in vivo; conditions: overexpression under ubiquitin promoter; 10 days on 1/2 MS basal media; FIG. 5
Procedure: In this example, transgenic plants overexpressing miR164 (FIG. 4) and wild-type plants were grown in ½ MS medium and observed for their phenotypes. The procedure was carried out as follows, Rice seeds from transgenic lines overexpressing miR164 were husked and disinfected (75% alcohol treatment for 3 minutes followed by 0.15% HgCl2 treatment for 30 minutes, and rinsed with sterile water for several times), and then allowed to germinate on the ½ MS basal media containing 50 mg/L hygromycin. One day later, the rice seeds from wild-type control lines were placed on the ½ MS basal media without hygromycin and allowed to germinate. Two to three days later, well germinated and consistently grown seeds were transferred to ½ MS basal media and cultivated in an illumination incubator (which simulated natural growth condition of 14-hour light and 10-hour darkness) for 10 days for phenotype observation. More than 30 plants were selected for each of the transgenic and wild-type plant lines, and each experiment was run in triplicate.

rice pollens = assay: Fertility phenotype of transgenic plants overexpressing miR164 (iodine staining of pollens); type: in vivo; conditions: overexpression under ubiquitin promoter; FIG. 6
Source text: This abnormality made the glumes unable to open such that the filaments, although elongated, could not extend out of the glumes (FIG. 6B). […] Moreover, the ovaries of most of the transgenic plants overexpressing miR164 stopped growing or even died (FIG. 6C to 6E). The development of anthers in the transgenic plants overexpressing miR164 was abnormal. […] The pollens of the transgenic plants overexpressing miR164 were not in the normal globular shape, but were shrunken (FIG. 6F to 6K). […] The sterility of the transgenic plants overexpressing miR164 could be utilized to conveniently breed a rice sterile line for hybrid rice breeding.

Compound | seed production of transgenic plants overexpressing miR164 after external application of hormones [1] | change in expression of miR164 after phytohormone treatment (miR164) | further results
O=C(O)Cc1c[nH]c2ccccc12 [indoleacetic acid, Indole-3-acetic acid] | produce seeds normally | – | –
gibberellin | – | increased | time of peak miR164 expression after treatment (miR164; then dropping to the level before treatment): 10 min
CC(C)[C@H](C)[C@@H](O)[C@H](O)[C@@H](C)[C@H]1CC[C@H]2[C@@H]3COC(=O)[C@H]4C[C@H](O)[C@H](O)C[C@]4(C)[C@H]3CC[C@]12C [brassinolide] | – | no obvious change | –
miR164: mature microRNA (SEQ ID NO: 2) from the rice miR164 gene (SEQ ID NO: 1), overexpressed in rice under a ubiquitin promoter (UGGAGAAGCAGGGCACGUGCA; listed as Oryza sativa) | – | – | root system of transgenic plants versus wild-type plants (rice root system): obviously larger root systems; pollen fertility of transgenic plants (iodine staining) (rice pollens): completely sterile
c1ccc(CNc2ncnc3nc[nH]c23)cc1 [6-benzylaminopurine, 6-Benzylaminopurine] | produce seeds normally | – | –
c1coc(CNc2ncnc3[nH]cnc23)c1 [Kinetin] | produce seeds normally | decreased gradually | –
